Results: patent publication US10751337B2, “Preservative free ocular compositions and methods for using the same for treating dry eye disease and other eye disorders” (The Board of Trustees of the University of Illinois, priority 2015, dated 2020)

Tests used:
[1] = tested on: mixed dry eye disease (severe tear deficiency Meibomian gland dysfunction (MGD)); conditions: one patient
[2] = tested on: Non-Sjogren dry eye syndrome (Meibomian gland dysfunction); assay: Treatment of a patient with non-Sjogren dry eye syndrome, MGD not due to ocular GVHD (Example 4); conditions: person, 0.15% twice a day
Sjogren dry eye syndrome = conditions: person; 0.15% twice a day in both eyes
[3] = tested on: Evaporative dry eye (EDE) attributable to LASIK refractive surgery; conditions: person after LASIK; eye drops 0.15% in both eyes; most recent follow up
Excerpt: The patient treated was a person with severe symptoms of ocular discomfort. The patient had undergone LASIK refractive surgery in both eyes. The prior treatment history was that the patient was on doxycycline pills, warm compresses, erythromycin ointment and intermittently on steroid eye drops. […] The patient instilled the eye drops on the surface of the eye and spread the excess eye drops to both eye lid margins.

[4] = tested on: Meibomian gland dysfunction (MGD) in patients with chronic ocular Graft-Versus-Host-Disease (oGVHD); assay: Treatment of chronic ocular GVHD patients with Meibomian gland dysfunction, SGA and CGI assessment (Example 2)
[5] = ocular GVHD patients with MGD, summary statement

Question: What does the source list for Brc1c(NC2=NCCN2)ccc2nccnc12 [brimonidine, 5-Bromo-N-(4,5-dihydro-1H-imidazol-2-yl) quinoxalin-6-amine]?
Answer: conjunctival and eyelid margin redness ([1]; 0.15% aqueous solution twice a day to eyelash and eyelid margin area, 15 minutes after application): significant reduction; patient-reported symptoms of ocular discomfort ([1]; 0.15% aqueous solution twice a day, after applying): reduced; side effects [2]: No side effects were reported; tolerability of the drops [2]: tolerated well; patient-reported redness of both eyes ([2]; most recent follow up): reduction in redness of both eyes; patient-reported symptoms of dryness and burning ([2]; most recent follow up): reduction in symptoms of dryness and burning; patient-reported symptoms and redness (Sjogren dry eye syndrome): improvement in symptoms and redness; patient-reported improvement of symptoms since starting treatment [3]: 90%; patients who did not report any change (SGA) ([4]; 18 patients (n=2), 0.15% twice a day): 11%; patients who reported improvement (SGA) ([4]; 18 patients (n=6), 0.15% twice a day): 33%; patients who reported much improvement (SGA) ([4]; 18 patients (n=10), 0.15% twice a day): 55%; patients with moderate to marked improvements in CGI ([4]; 18 patients (n=15), 0.15% twice a day): 83%; patients clinically worsened (CGI) ([4]; 18 patients, 0.15% twice a day): No patients had clinically worsened; patients reporting worsening of symptoms or signs (SGA) ([4]; 18 patients, 0.15% twice a day): No patients reported worsening of symptoms or signs; tolerability of the eye drops ([4]; 18 patients, 0.15% twice a day): easily tolerated; Subjective Global Assessment (SGA), mean (±SD) ([4]; 18 patients, five point scale (Much worse to Much improved), 0.15% one drop twice a day, followed 6 months or more): 4.4±0.69; Clinical Global Impression (CGI), mean (±SD) ([4]; 18 patients, seven point scale (Marked worsening to Marked improvement), 0.15% twice a day): 6.2±0.88; patients tested with a beneficial effect [4, 5]: approximately 90%; side effects [4, 5]: without significant side effects
